Biological target: T1, Ba/F3 cell EGFR Exon20 ins NPH (Homo sapiens, UniProt P00533, INS773NPH)
T1 construct: expressed in transfected cells; host or cells: Ba/F3
Experiment: Ba/F3 cell proliferation suppression, EGFR Exon20 ins NPH
Assay type: cell-based
Details: GI50 class; Ba/F3 cell line with NPH inserted at Exon20 of EGFR; 72 hours
Outline: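 Growth suppression determined as GI50 following 72 h exposure across 12 concentrations up to 50 um, with viability by luminescent ATP assay (CellTiter-Glo).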

Row | Ba/F3 (NPH) Activity | SMILES
1 | A (GI50 < 50 nM) | C=CC(=O)Nc1cc(Nc2cc(N3OCC[C@@H]3Cc3ccccc3)ncn2)c(OC)cc1N1CCN(CC2CC2)CC1 [compound 959, N-(5-((6-((S)-3-benzylisoxazolidine-2-yl)pyrimidine-4-yl)amino)-2-(4-(cyclopropylmethyl)piperazine-1-yl)-4-methoxyphenyl) acrylamide]
2 | A (GI50 < 50 nM) | C=CC(=O)Nc1cc(Nc2cc(N3OCC[C@@H]3c3ccc(F)cc3F)ncn2)c(OC)cc1N1CCN(C2CC2)CC1 [compound 344, N-(2-(4-cyclopropylpiperazine-1-yl)-5-((6-((R)-3-(2,4-difluorophenyl)isoxazolidine-2-yl)pyrimidine-4-yl)amino)-4-methoxyphenyl) acrylamide]
3 | A (GI50 < 50 nM) | C=CC(=O)Nc1cc(Nc2cc(N3OCC[C@@H]3Cc3cccc(F)c3Cl)ncn2)c(OC)cc1N1CCC(N2CCN(C3CC3)CC2)CC1 [compound 1007, N-(5-((6-((S)-3-(2-chloro-3-fluorobenzyl)isoxazolidine-2-yl)pyrimidine-4-yl)amino)-2-(4-(4-cyclopropylpiperazine-1-yl)piperidine-1-yl)-4-methoxyphenyl) acrylamide]
4 | B (50 nM ≤ GI50 < 500 nM) | C=CC(=O)Nc1cc(Nc2cc(N3OCC[C@@H]3c3ccc(F)c(F)c3)ncn2)c(OC)cc1N1CC[C@@H](N2CCOCC2)C1 [compound 578, N-(5-((6-((R)-3-(3,4-difluorophenyl)isoxazolidine-2-yl)pyrimidine-4-yl)amino)-4-methoxy-2-((R)-3-morpholinopyrolidine-1-yl)phenyl)acrylamide]
5 | A (GI50 < 50 nM) | C=CC(=O)Nc1cc(Nc2cc(N3OCC[C@@H]3c3cccc4ccccc34)ncn2)c(OC)cc1N1CCC(N2C[C@@H]3C[C@H]2CO3)CC1 [compound 489, N-(2-(4-((1S,4S)-2-oxa-5-azabicyclo[2.2.1]heptane-5-yl)piperidine-1-yl)-4-methoxy-5-((6-((R)-3-(naphthalene-1-yl)isoxazolidine-2-yl)pyrimidine-4-yl)amino)phenyl)acrylamide]
6 | A (GI50 < 50 nM) | C=CCN1CCN(C2CCN(c3cc(OC)c(Nc4cc(N5OCC[C@@H]5c5cccc(C#N)c5)ncn4)cc3NC(=O)C=C)CC2)CC1 [Example 210, N-(2-(4-(4-allylpiperazine-1-yl)piperidine-1-yl)-5-((6-((R)-3-(3-cyanophenyl)isoxazolidine-2-yl)pyrimidine-4-yl)amino)-4-methoxyphenyl) acrylamide]
7 | A (GI50 < 50 nM) | C=CC(=O)Nc1cc(Nc2cc(N3OCC[C@@H]3c3ccc(F)cc3F)ncn2)c(OC)cc1N1CCC(N(C)CCOC)CC1 [compound 387, N-(5-((6-((R)-3-(2,4-difluorophenyl)isoxazolidine-2-yl)pyrimidine-4-yl)amino)-4-methoxy-2-(4-((2-methoxyethyl)(methyl)amino)piperidine-1-yl)phenyl)acrylamide]
8 | C (500 nM ≤ GI50 < 5000 nM) | C=CC(=O)Nc1cc(Nc2cc(N3OCC[C@@]3(C)c3ccccc3)ncn2)c(OC)cc1N1CCC(N2C[C@H]3C[C@@H]2CO3)CC1 [Example 269, N-(2-(4-((1R,4R)-2-oxa-5-azabicyclo[2.2.1]heptane-5-yl)piperidine-1-yl)-4-methoxy-5-((6-((S)-3-methyl-3-phenylisoxazolidine-2-yl)pyrimidine-4-yl)amino)phenyl) acrylamide]
9 | A (GI50 < 50 nM) | C=CC(=O)Nc1cc(Nc2cc(N3OCC[C@@H]3c3cc(F)cc(F)c3)ncn2)c(OC)cc1N1CCC(N2CCN(C3COC3)CC2)CC1 [Example 79, N-(5-((6-((R)-3-(3,5-difluorophenyl)isoxazolidine-2-yl)pyrimidine-4-yl)amino)-4-methoxy-2-(4-(4-(oxetane-3-yl)piperazine-1-yl)piperidine-1-yl)phenyl)acrylamide]

Continued, compound first:

Row | SMILES | Ba/F3 (NPH) Activity
10 | C=CC(=O)Nc1cc(Nc2cc(N3OCC[C@@H]3c3cc(F)cc(F)c3)ncn2)c(OC)cc1N1CCC(N2CCN(C)C[C@H]2C)CC1 [compound 761, N-(5-((6-((R)-3-(3,5-difluorophenyl)isoxazolidine-2-yl)pyrimidine-4-yl)amino)-2-(4-((R)-2,4-dimethylpiperazine-1-yl)piperidine-1-yl)-4-methoxyphenyl) acrylamide] | A (GI50 < 50 nM)
11 | C=CC(=O)Nc1cc(Nc2cc(N3OCC[C@@H]3c3ccc(F)cc3)ncn2)c(OC)cc1N1CCC(N2CC[C@@H](N(C)C)C2)CC1 [compound 810, N-(2-(4-((R)-3-(dimethylamino)pyrolidine-1-yl)piperidine-1-yl)-5-((6-((R)-3-(4-fluorophenyl)isoxazolidine-2-yl)pyrimidine-4-yl)amino)-4-methoxyphenyl) acrylamide] | A (GI50 < 50 nM)
12 | C=CC(=O)Nc1cc(Nc2cc(N3OCC[C@@H]3Cc3ccccc3)ncn2)c(OC)cc1N1CC[C@@H](N(C)C)C1 [compound 964, N-(5-((6-((S)-3-benzylisoxazolidine-2-yl)pyrimidine-4-yl)amino)-2-((R)-3-(dimethylamino)pyrolidine-1-yl)-4-methoxyphenyl) acrylamide] | A (GI50 < 50 nM)
13 | C=CC(=O)Nc1cc(Nc2cc(N3OCC[C@@H]3c3cccc(Cl)c3Cl)ncn2)c(OC)cc1N1CCN(CCN(C)C)CC1 [compound 566, N-(5-((6-((R)-3-(2,3-dichlorophenyl)isoxazolidine-2-yl)pyrimidine-4-yl)amino)-2-(4-(2-(dimethylamino)ethyl)piperazine-1-yl)-4-methoxyphenyl) acrylamide] | B (50 nM ≤ GI50 < 500 nM)
14 | C=CC(=O)Nc1cc(Nc2cc(N3OCC[C@@H]3c3ccc(Cl)c(Cl)c3)ncn2)c(OC)cc1N1CCN(C2CC2)CC1 [compound 673, N-(2-(4-cyclopropylpiperazine-1-yl)-5-((6-((R)-3-(3,4-dichlorophenyl)isoxazolidine-2-yl)pyrimidine-4-yl)amino)-4-methoxyphenyl) acrylamide] | A (GI50 < 50 nM)
15 | C=CC(=O)Nc1cc(Nc2cc(N3OCC[C@@H]3c3ccc(C)nc3)ncn2)c(OC)cc1N(C)CCN(C)C [Example 36, N-(2-((2-(dimethylamino)ethyl)(methyl)amino)-4-methoxy-5-((6-((R)-3-(6-methylpyridine-3-yl)isoxazolidine-2-yl)pyrimidine-4-yl)amino)phenyl) acrylamide] | A (GI50 < 50 nM)
16 | C=CC(=O)Nc1cc(Nc2cc(N3OCC[C@@H]3c3cccc(F)c3F)ncn2)c(OC)cc1N1CCC(N2CCN(CC)CC2)CC1 [compound 922] | A (GI50 < 50 nM)
17 | C=CC(=O)Nc1cc(Nc2cc(N3OCC[C@@H]3c3ccccc3)ncn2)c(OC)cc1N1CCC(N2CCN(C(C)=O)CC2)CC1 [Example 284, N-(2-(4-(4-acetylpiperazine-1-yl)piperidine-1-yl)-4-methoxy-5-((6-((R)-3-phenylisoxazolidine-2-yl)pyrimidine-4-yl)amino)phenyl) acrylamide] | A (GI50 < 50 nM)
18 | C=CC(=O)Nc1cc(Nc2cc(N3OCC[C@@H]3Cc3ccccc3)ncn2)c(OC)cc1N1CCC(OCCN(CC)CC)CC1 [compound 978, N-(5-((6-((S)-3-benzylisoxazolidine-2-yl)pyrimidine-4-yl)amino)-2-(4-(2-(diethylamino)ethoxy)piperidine-1-yl)-4-methoxyphenyl) acrylamide] | C (500 nM ≤ GI50 < 5000 nM)
19 | C=CC(=O)Nc1cc(Nc2cc(N3OCC[C@@H]3c3cccc(Cl)c3Cl)ncn2)c(OC)cc1N1C[C@@H]2C[C@H]1CO2 [compound 522, N-(2-((1S,4S)-2-oxa-5-azabicyclo[2.2.1]heptane-5-yl)-5-((6-((R)-3-(2,3-dichlorophenyl)isoxazolidine-2-yl)pyrimidine-4-yl)amino)-4-methoxyphenyl) acrylamide] | B (50 nM ≤ GI50 < 500 nM)
20 | C=CC(=O)Nc1cc(Nc2cc(N3OCC[C@@H]3c3ccccc3)ncn2)c(OC)cc1N1CCC(N2CC[C@H](N(C)C)C2)CC1 [Example 286, N-(2-(4-((S)-3-(dimethylamino)pyrolidine-1-yl)piperidine-1-yl)-4-methoxy-5-((6-((R)-3-phenylisoxazolidine-2-yl)pyrimidine-4-yl)amino)phenyl) acrylamide] | A (GI50 < 50 nM)
21 | C=CC(=O)Nc1cc(Nc2cc(N3OCC[C@@H]3Cc3cccc(F)c3C)ncn2)c(OC)cc1N1CCC(N2CCN(C3CC3)[C@H](C)C2)CC1 [compound 1004, N-(2-(4-((R)-4-cyclopropyl-3-methylpiperazine-1-yl)piperidine-1-yl)-5-((6-((S)-3-(3-fluoro-2-methylbenzyl)isoxazolidine-2-yl)pyrimidine-4-yl)amino)-4-methoxyphenyl) acrylamide] | A (GI50 < 50 nM)
22 | C=CC(=O)Nc1cc(Nc2cc(N3OCC[C@@H]3c3ccc(F)c(F)c3)ncn2)c(OC)cc1N1CCC(N2CCN(C)CC2)CC1 [compound 502, N-(5-((6-((R)-3-(3,4-difluorophenyl)isoxazolidine-2-yl)pyrimidine-4-yl)amino)-4-methoxy-2-(4-(4-methylpiperazine-1-yl)piperidine-1-yl)phenyl) acrylamide] | A (GI50 < 50 nM)
23 | C=CC(=O)Nc1cc(Nc2cc(N3OCC[C@@H]3c3ccccc3)ncn2)c(OC)cc1N1CCC(N2CCN(CC3CC3)CC2)CC1 [Example 91, N-(2-(4-(4-(cyclopropylmethyl)piperazine-1-yl)piperidine-1-yl)-4-methoxy-5-((6-((R)-3-phenylisoxazolidine-2-yl)pyrimidine-4-yl)amino)phenyl)acrylamide] | A (GI50 < 50 nM)
24 | C=CC(=O)Nc1cc(Nc2cc(N3OCC[C@@H]3Cc3cccc(Cl)c3C)ncn2)c(OC)cc1N1CCC(N2CCN(C3CC3)CC2)CC1 [compound 1025, N-(5-((6-((S)-3-(3-chloro-2-methylbenzyl)isoxazolidine-2-yl)pyrimidine-4-yl)amino)-2-(4-(4-cyclopropylpiperazine-1-yl)piperidine-1-yl)-4-methoxyphenyl) acrylamide] | A (GI50 < 50 nM)

Source: US12157730B2, “Heteroaryl derivative, method for producing same, and pharmaceutical composition comprising same as effective component” (VORONOI INC., priority 2019, dated 2024)
